Measured values: US12029739B2, “SHP2 inhibitor and use thereof” (KANAPH THERAPEUTICS INC., priority 2021, dated 2024)
Like-named read-outs stand apart in the source and are kept apart here.

Legend:
[1] = tested on: phospho-ERK in MIA PaCa2 or H358 cells; assay: Phospho-ERK assay (AlphaLisa); format: cell-based; conditions: MIA PaCa2 or H358 cells, compound incubated 1.5 hours, read-out: IC50 (p-ERK)
[2] = target: T1, SHP2 (full length) (Homo sapiens, UniProt Q06124); assay: Phosphatase assay (PTPase assay) with DiFMUP substrate; format: biochemical; conditions: SHP2 activated with SHP2 activating peptide; DiFMUP 80 μM, 2 hours; fluorescence; read-out: IC50 (PTPase aS say)
T1 construct: SHP2 (full length, diluted to 100 pM final concentration in reaction buffer, BPS bioscience, US); purchased BPS bioscience, US
T1 sequence (Q06124 1-593): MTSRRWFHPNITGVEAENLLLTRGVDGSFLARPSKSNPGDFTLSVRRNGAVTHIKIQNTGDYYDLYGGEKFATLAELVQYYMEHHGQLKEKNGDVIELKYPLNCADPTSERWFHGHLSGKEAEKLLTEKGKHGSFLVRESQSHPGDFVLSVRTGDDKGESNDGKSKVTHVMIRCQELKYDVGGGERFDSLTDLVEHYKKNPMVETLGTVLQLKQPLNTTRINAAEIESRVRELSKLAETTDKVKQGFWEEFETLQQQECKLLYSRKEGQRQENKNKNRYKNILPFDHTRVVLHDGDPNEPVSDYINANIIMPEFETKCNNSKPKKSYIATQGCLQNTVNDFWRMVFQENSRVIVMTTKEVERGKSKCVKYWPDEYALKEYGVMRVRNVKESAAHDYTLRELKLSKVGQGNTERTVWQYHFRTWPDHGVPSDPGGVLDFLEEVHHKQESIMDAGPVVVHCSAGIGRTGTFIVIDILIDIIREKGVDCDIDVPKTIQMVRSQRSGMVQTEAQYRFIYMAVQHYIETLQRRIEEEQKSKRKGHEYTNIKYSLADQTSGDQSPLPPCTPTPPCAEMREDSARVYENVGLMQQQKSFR

Row | Structure (SMILES) | IC50 [1] | IC50 [2] | IC50 ([1]; 1.5 h)
1 | C[C@@H]1OCC2(CCN(c3cnc(Sc4ccc5nc(Oc6ccccc6)[nH]c5c4Cl)cn3)CC2)[C@@H]1N [Example 125] | < 45 nM | < 3 nM | –
2 | COCCn1cnc2ccc(Sc3cnc(N4CCC5(CC4)Cc4ccccc4[C@H]5N)cn3)c(Cl)c2c1=O [Example 84, (S)-6-((5-(1-amino-1,3-dihydrospiro(indene-2,4′-piperidin]-1′-yl)pyrazin-2-yl)thio)-5-chloro-3-(2-methoxyethyl)quinazolin-4(3H)-one] | < 45 nM | < 3 nM | –
3 | COC(C)Cn1cnc2ccc(Sc3ncc(N4CCC5(CC4)Cc4ncsc4[C@H]5N)nc3N)c(Cl)c2c1=O (stereo partly shown) [Example 176] | – | < 3 nM | < 45 nM
4 | COCCn1cnc2ccc(Sc3ncc(N4CCC5(CC4)Cc4scnc4[C@H]5N)nc3N)c(Cl)c2c1=O [Example 167, (S)-6-((3-amino-5-(4-amino-4,6-dihydrospiro[cyclopenta[d]thiazole-5,4′-piperidin]-1′-yl)pyrazin-2-yl)thio)-5-chloro-3-(2-methoxyethyl)quinazolin-4(3H)-one] | – | < 3 nM | 45 to 1500 nM
5 | C[C@@H]1OCC2(CCN(c3cnc(Sc4ccc5ncn(CC(=O)N6CCCCC6)c(=O)c5c4Cl)cn3)CC2)[C@@H]1N [Example 95, 6-((5-((3S,4S)-4-amino-3-methyl-2-oxa-8-azaspiro[4.5]decan-8-yl)pyrazin-2-yl)thio)-5-chloro-3-(2-oxo-(2-piperidin-1-yl]ethyl)quinazolin-4(3H)-one] | – | < 3 nM | 45 to 1500 nM
6 | C[C@@H]1OCC2(CCN(c3cnc(Sc4ccc5c(=O)n(Cc6ccccc6)cnc5c4Cl)cn3)CC2)[C@@H]1N [Example 132] | – | < 3 nM | < 45 nM
7 | CC(C)(O)Cn1cnc2ccc(Sc3ncc(N4CCC5(CC4)Cc4scnc4[C@H]5N)nc3N)c(Cl)c2c1=O [Example 165, (S)-6-((3-amino-5-(4-amino-4,6-dihydrospiro[cyclopenta[d]thiazole-5,4′-piperidin]-1′-yl)pyrazin-2-yl)thio)-5-chloro-3-(2-hydroxy-2-methylpropyl)quinazolin-4(3H)-one] | – | < 3 nM | < 45 nM
8 | COCCn1cnc2ccc(Sc3nc(C(C)=O)c(N4CCC5(CC4)CO[C@@H](C)[C@H]5N)nc3N)c(Cl)c2c1=O [Example 155] | – | 3 to 100 nM | > 1500 nM
9 | N[C@@H]1c2cccnc2CC12CCN(c1cnc(Sc3ccc4ncn(Cc5cccnc5)c(=O)c4c3Cl)cn1)CC2 [Example 105, (S)-6-((5-(5-amino-5,7-dihydrospiro[yclopenta[b]pyridine-6,4′-piperidin]-1′-yl)pyrazin-2-yl)thio)-5-chloro-(3-pyridin-3-ylmethyl)quinazolin-4(3H)-one] | – | < 3 nM | < 45 nM
10 | C[C@@H]1OCC2(CCN(c3cnc(Sc4ccc5nc(Cc6ccccc6)[nH]c5c4Cl)cn3)CC2)[C@@H]1N [Example 50, (3S,4S)-8-(5-((2-benzyl-7-chloro-1H-benzo[d]imidazol-6-yl)thio)pyrazin-2-yl)-3-methyl-2-oxa-8-azaspiro[4.5]decan-4-amine] | – | 3 to 100 nM | 45 to 1500 nM
11 | COCCn1cnc2ccc(Sc3ccc(N4CCC5(CC4)CO[C@@H](C)[C@H]5N)cn3)c(Cl)c2c1=O [Example 181, 6-((5-((3S,4S)-4-amino-3-methyl-2-oxa-8-azaspiro[4.5]decan-8-yl)pyridin-2-yl)thio)-5-chloro-3-(2-methoxyethyl)quinazolin-4(3H)-one] | 45 to 1500 nM | 3 to 100 nM | –
12 | COCCn1cnc2ccc(Sc3nc(CO)c(N4CCC5(CC4)CO[C@@H](C)[C@H]5N)nc3C)c(Cl)c2c1=O [Example 131] | 45 to 1500 nM | 3 to 100 nM | –
13 | C[C@@H]1OCC2(CCN(c3cnc(Sc4ccc5ncn(Cc6ccccc6F)c(=O)c5c4Cl)cn3)CC2)[C@@H]1N [Example 43, 6-((5-((3S,4S)-4-amino-3-methyl-2-oxa-8-azaspiro[4.5]decan-8-yl)pyrazin-2-yl)thio)-5-chloro-3-(2-fluorobenzyl)quinazolin-4(3H)-one] | – | < 3 nM | < 45 nM
14 | CC(=O)NCCn1cnc2ccc(Sc3cnc(N4CCC5(CC4)CO[C@@H](C)[C@H]5N)cn3)c(Cl)c2c1=O [Example 115] | – | < 3 nM | < 45 nM
15 | N[C@H]1c2scnc2CC12CCN(c1cnc(Sc3ccc4ncn(CC5CCOCC5)c(=O)c4c3Cl)cn1)CC2 [Example 148, 6-[5-[(6R)-6-aminospiro[4,6-dihydrocyclopenta[d]thiazole-5,4′piperidin]1′-yl]-pyrazin-2-yl]sulfanyl-5-chloro-3-(tetrahydropyran-4-ylmethyl)quinazolin-4-one] | – | 3 to 100 nM | 45 to 1500 nM
16 | C[C@@H]1OCC2(CCN(c3cnc(Sc4ccc5ncn(CC(C)(C)O)c(=O)c5c4Cl)cn3)CC2)[C@@H]1N [Example 81, 6-((5-((3S,4S)-4-amino-3-methyl-2-oxa-8-azaspiro[4.5]decan-8-yl)pyrazin-2-yl)thio)-5-chloro-3-(2-hydroxy-2-methylpropyl)quinazolin-4(3H)-one] | – | < 3 nM | < 45 nM
17 | CC1(N)CCN(c2cnc(Sc3ccc4ncn(Cc5cccc([N+](=O)[O-])c5)c(=O)c4c3Cl)cn2)CC1 [Example 14, 6-((5-(4-amino-4-methylpiperidin-1-yl)pyrazin-2-yl)thio)-5-chloro-3-(3-nitrobenzyl)quinazolin-4(3H)-one] | – | 3 to 100 nM | 45 to 1500 nM
18 | CC(N)CN1CCN(c2nc(N)c(Sc3cccc(Cl)c3Cl)c(=O)n2C)CC1 (stereo not shown) [Example 202, 6-amino-2-(4-(2-aminopropyl)piperazin-1-yl)-5-((2,3-dichlorophenyl)thio)-3-methylpyrimidin-4(3H)-one] | – | > 100 nM | > 1500 nM
19 | C[C@@H]1OCC2(CCN(c3cnc(Sc4ccc5nn(C)cc5c4Cl)cn3)CC2)[C@@H]1N [Example 26, (3S,4S)-8-(5-((4-chloro-2-methyl-2H-indazol-5-yl)thio)pyrazin-2-yl)-3-methyl-2-oxa-8-azaspiro[4.5]decan-4-amine] | – | < 3 nM | < 45 nM
20 | COc1ccc(Cn2cnc3ccc(Sc4cnc(N5CCC6(CC5)CO[C@@H](C)[C@H]6N)cn4)c(Cl)c3c2=O)cc1 [Example 41, 6-((5-((3S,4S)-4-amino-3-methyl-2-oxa-8-azaspiro[4.5]decan-8-yl)pyrazin-2-yl)thio)-5-chloro-3-(4-methoxybenzyl)quinazolin-4(3H)-one] | – | < 3 nM | < 45 nM
21 | C[C@@H]1OCC2(CCN(c3cnc(Sc4ccc5ncn(CCN6CCOC6=O)c(=O)c5c4Cl)cn3)CC2)[C@@H]1N [Example 114] | – | < 3 nM | < 45 nM
22 | N[C@H]1c2cccnc2CC12CCN(c1cnc(Sc3ccc4ncn(Cc5cccnc5)c(=O)c4c3Cl)cn1)CC2 [Example 106, (R)-6-((5-(5-amino-5,7-dihydrospiro[yclopenta[b]pyridine-6,4′-piperidin]-1′-yl)pyrazin-2-yl)thio)-5-chloro-(3-pyridin-3-ylmethyl)quinazolin-4(3H)-one] | – | 3 to 100 nM | 45 to 1500 nM
23 | N[C@@H]1c2cccnc2CC12CCN(c1cnc(Sc3ccc4ncn(Cc5ccoc5)c(=O)c4c3Cl)cn1)CC2 [Example 138] | – | < 3 nM | < 45 nM
24 | C[C@@H]1OCC2(CCN(c3cnc(Sc4cccc(S(=O)(=O)NCc5ccccc5)c4Cl)cn3)CC2)[C@@H]1N [Example 10, 3-((5-((3S,4S)-4-amino-3-methyl-2-oxa-8-azaspiro[4.5]decan-8-yl)pyrazin-2-yl)thio)-N-benzyl-2-chlorobenzenesulfonamide] | – | 3 to 100 nM | < 45 nM
25 | COCCn1cnc2ccc(Sc3cnc(N4CCC5(CC4)Cc4ncsc4[C@H]5N)cn3)c(Cl)c2c1=O [Example 144, 6-[5-[(6S)-6-aminospiro[4,6-dihydrocyclopenta[d]thiazole-5,4′-piperidin]-1′-yl]pyrazin-2-yl]sulfanyl-5-chloro-3-(2-methoxyethyl)quinazolin-4-one] | – | < 3 nM | < 45 nM
26 | Cc1nc2ccc(Sc3cnc(N4CCC(C)(N)CC4)cn3)c(Cl)c2s1 [Example 24, 1-(5-((7-chloro-2-methylbenzo[d]thiazol-6-yl)thio)pyrazin-2-yl)-4-methylpiperidin-4-amine] | – | 3 to 100 nM | > 1500 nM
